Data from US12653800B2, “Small molecule inhibitors of TLR2 signaling” (University of Maryland, Baltimore, priority 2015, dated 2026).

Tests used:
TLR2/6 = TLR2/6 (Homo sapiens, UniProt O60603); assay: P2C-induced IL-8 mRNA (qRT-PCR) in HEK-TLR2 stable transfectants; assay type: cell-based; parameters: expressed in transfected cells; conditions: 100 μM compound, 1 hr pretreatment, P2C 5 ng/mL 1 hr, HEK-TLR2 cells; read-out: decrease of P2C-induced IL-8 mRNA
[1] = in vivo; stated for o-vanillin, reported previously for its isomer vanillin (Beaudry 2010); cited from earlier work
TLR2/1 = TLR2/1 (Mus musculus, UniProt Q9QUN7); assay: Cytokine mRNA/protein in murine peritoneal macrophages stimulated with TLR2/1 agonists (P3C, LTA SA); assay type: cell-based; conditions: murine macrophages, 25 μM or 50 μM, P3C 50 ng/mL 1 hr
Chain of TLR2/1 (Q9QUN7 25-784): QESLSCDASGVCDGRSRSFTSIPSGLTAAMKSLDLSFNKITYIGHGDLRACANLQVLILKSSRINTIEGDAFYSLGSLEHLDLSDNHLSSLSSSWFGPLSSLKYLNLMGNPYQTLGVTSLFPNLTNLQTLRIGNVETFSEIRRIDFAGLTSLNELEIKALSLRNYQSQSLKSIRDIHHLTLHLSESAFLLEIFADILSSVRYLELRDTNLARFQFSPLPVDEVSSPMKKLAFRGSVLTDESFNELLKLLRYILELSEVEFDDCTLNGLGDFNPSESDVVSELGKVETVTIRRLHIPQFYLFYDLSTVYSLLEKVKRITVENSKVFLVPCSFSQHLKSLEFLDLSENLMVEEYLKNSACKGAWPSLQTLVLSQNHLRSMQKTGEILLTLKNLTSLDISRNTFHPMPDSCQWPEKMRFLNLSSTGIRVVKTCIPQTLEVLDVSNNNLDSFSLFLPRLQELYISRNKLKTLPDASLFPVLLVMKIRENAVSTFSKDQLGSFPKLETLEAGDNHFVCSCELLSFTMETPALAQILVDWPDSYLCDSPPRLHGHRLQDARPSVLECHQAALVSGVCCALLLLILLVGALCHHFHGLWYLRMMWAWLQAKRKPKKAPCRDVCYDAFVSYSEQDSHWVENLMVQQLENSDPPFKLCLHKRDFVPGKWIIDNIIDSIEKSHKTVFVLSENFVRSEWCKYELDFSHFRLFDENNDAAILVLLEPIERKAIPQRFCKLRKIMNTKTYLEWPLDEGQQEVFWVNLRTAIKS

Chain of TLR2/6 (O60603 21-784): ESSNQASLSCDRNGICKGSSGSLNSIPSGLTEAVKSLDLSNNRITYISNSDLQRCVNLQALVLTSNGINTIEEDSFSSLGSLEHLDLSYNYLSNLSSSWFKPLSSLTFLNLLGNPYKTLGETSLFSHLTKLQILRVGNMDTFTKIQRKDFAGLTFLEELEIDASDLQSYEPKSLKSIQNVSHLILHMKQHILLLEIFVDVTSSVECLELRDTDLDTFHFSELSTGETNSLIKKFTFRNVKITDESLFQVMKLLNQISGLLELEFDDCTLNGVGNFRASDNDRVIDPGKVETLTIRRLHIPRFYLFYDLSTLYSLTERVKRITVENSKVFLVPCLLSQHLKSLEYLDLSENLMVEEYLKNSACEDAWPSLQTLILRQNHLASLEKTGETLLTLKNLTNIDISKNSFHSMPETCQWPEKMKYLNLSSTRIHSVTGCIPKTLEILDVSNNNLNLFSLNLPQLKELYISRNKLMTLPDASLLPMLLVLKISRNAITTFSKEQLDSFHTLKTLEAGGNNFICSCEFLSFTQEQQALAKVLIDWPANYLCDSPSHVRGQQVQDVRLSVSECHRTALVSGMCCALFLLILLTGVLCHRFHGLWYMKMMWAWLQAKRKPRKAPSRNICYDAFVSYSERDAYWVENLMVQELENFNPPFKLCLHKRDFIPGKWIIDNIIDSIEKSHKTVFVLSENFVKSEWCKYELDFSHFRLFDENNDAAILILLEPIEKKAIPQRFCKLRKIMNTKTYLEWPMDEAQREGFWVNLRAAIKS

| Compound | inhibition at 100 µM (TLR2/6) | other results |
| --- | --- | --- |
| CN(CC(=O)Nc1ccc2c(c1)OCO2)S(=O)(=O)c1cccs1 [Compound C24] | ≥ 50% |  |
| COc1cc(C=O)ccc1O [vanillin, reference compound] |  | bioavailability [1]: poor bioavailability |
| CCN(CCCNc1nc(=S)[nH]c2ccccc12)c1ccccc1 [Compound C32] | ≥ 50% |  |
| COc1cccc(-c2nc(CSCC(=O)NCCN3CCOCC3)c(C)o2)c1 [Compound C25] | ≥ 50% |  |
| O=C(CCC1N=C2c3ccccc3NC(=S)N2C1=O)NCc1ccco1 (centres unmarked) [Compound C30] | ≥ 50% |  |
| COc1ccc(-c2nc(CSCC(=O)NCc3cccnc3)c(C)o2)cc1OC [Compound C26] | ≥ 50% |  |
| Cc1ccc(S(=O)(=O)NCCC(=O)NCCc2ccccc2)cc1 [Compound C33] | ≥ 50% |  |
| Cc1c(N)cccc1C(=O)O [Compound C29R, 3-amino-2-methylbenzoic acid, reference compound] |  | TLR2/1-induced TNF-α gene expression (TLR2/1): but not C29R, dose-dependently inhibited |
